As a reminder, the viability, T/C is the ratio of treated to control. The IC50 is the concentration needed to halve the response being measured.

The values that follow come from PubChem BioAssay AID1918947 (Molecular Pharmacology Branch, DTP, NCI, 2023).

In the assay the test system is A498 complex spheroid viability. Description: Anticancer human tumor A498 cell line growth inhibition.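 On all read-outs here: spheroids exposed to agents for seven days before readout.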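 On viability, T/C: 100% = DMSO vehicle-treated spheroids.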 As to conditions: for viability, T/C: stronger effect = lower value. Summed up:
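Complex spheroids of tumor cells with HUVEC and human MSCs, exposed to iadademstat combined with other agents. Each agent tested in half-log steps from near clinical Cmax (else 10 microM top), DMSO ≤0.25%.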

[1] abbreviates: curve of first compound, second compound 0.1 µM.
Where [2] appears, read: curve of first compound, second compound 0.316 µM.
[3] abbreviates: curve of first compound, second compound 1 µM.
[4] abbreviates: curve of first compound, second compound 3.16 µM.
The mark [5] stands for this setting: curve of first compound, second compound 10 µM.
The mark [6] stands for this setting: second compound 0.1 µM, first compound 0.00949 µM.
Setting [7] is: second compound 0.1 µM, first compound 0.03 µM.
Where [8] appears, read: second compound 0.1 µM, first compound 0.0949 µM.
Where [9] appears, read: second compound 0.1 µM, first compound 0.3 µM.
The mark [10] stands for this setting: second compound 0.1 µM, first compound 0.949 µM.
[11] abbreviates: second compound 0.1 µM, first compound 3 µM.
Where [12] appears, read: second compound 0.316 µM, first compound 0.00949 µM.
Setting [13] is: second compound 0.316 µM, first compound 0.03 µM.
[14] abbreviates: second compound 0.316 µM, first compound 0.0949 µM.
Where [15] appears, read: second compound 0.316 µM, first compound 0.3 µM.
Setting [16] is: second compound 0.316 µM, first compound 0.949 µM.
Where [17] appears, read: second compound 0.316 µM, first compound 3 µM.
Where [18] appears, read: second compound 1 µM, first compound 0.00949 µM.
The mark [19] stands for this setting: second compound 1 µM, first compound 0.03 µM.
Setting [20] is: second compound 1 µM, first compound 0.0949 µM.
The mark [21] stands for this setting: second compound 1 µM, first compound 0.3 µM.
Where [22] appears, read: second compound 1 µM, first compound 0.949 µM.
Setting [23] is: second compound 1 µM, first compound 3 µM.
Setting [24] is: second compound 3.16 µM, first compound 0.00949 µM.
The mark [25] stands for this setting: second compound 3.16 µM, first compound 0.03 µM.
Setting [26] is: second compound 3.16 µM, first compound 0.0949 µM.
The mark [27] stands for this setting: second compound 3.16 µM, first compound 0.3 µM.
The mark [28] stands for this setting: second compound 3.16 µM, first compound 0.949 µM.
Where [29] appears, read: second compound 3.16 µM, first compound 3 µM.
Where [30] appears, read: second compound 10 µM, first compound 0.00949 µM.
The mark [31] stands for this setting: second compound 10 µM, first compound 0.03 µM.
Where [32] appears, read: second compound 10 µM, first compound 0.0949 µM.
Setting [33] is: second compound 10 µM, first compound 0.3 µM.
Setting [34] is: second compound 10 µM, first compound 0.949 µM.
Setting [35] is: second compound 10 µM, first compound 3 µM.

Values joined by “and” are separate entries in the source; they are usually repeats but may differ in a detail not shown here. Equal values may be shown once. Where only a bound is given, the exact number is not on record here.

As for `Nc1ncn(C2CC(O)C(CO)S2)c(=O)n1` (stereo not drawn), the viability, T/C was 105% and 109% (compound 0.000949 µM); 104% and 117% (compound 0.003 µM); 99.6% and 102% (compound 0.00949 µM); 85.2% and 89.5% (compound 0.03 µM); 59.4% and 70% (compound 0.0949 µM); 33.8% and 40% (compound 0.3 µM). In addition, the IC50 (curve of compound) is 144 nM and 202 nM.
Take `CC(C)CC(NC(=O)C(Cc1ccccc1)NC(=O)c1cnccn1)B(O)O` (stereo not drawn): the viability, T/C reads like this: (compound 0.000316 µM) 103%; (compound 0.001 µM) 59.9% and 22.5%; (compound 0.00316 µM) 3.38% and 2.52%; (compound 0.01 µM) 0.64% and 0.86%; (compound 0.0316 µM) 0.57% and 0.5%; (compound 0.1 µM) 0.31% and 0.36%. The half-maximal inhibitory concentration (IC50) (curve of compound) was 1.22 nM and 0.674 nM.
Consider `O=C(C=Cn1cnc(-c2cc(C(F)(F)F)cc(C(F)(F)F)c2)n1)NNc1cnccn1`, for which the viability, T/C runs as follows: (compound 0.00316 µM) 71.3% and 66.5%; (compound 0.01 µM) 42.9% and 36.6%; (compound 0.0316 µM) 32.5% and 31.3%; (compound 0.1 µM) 29.1% and 26.8%; (compound 0.316 µM) 25.6% and 26.2%; (compound 1 µM) 22.2% and 17.3%. Besides, where the note is “curve of compound”, the IC50 was 7.74 nM and 6.34 nM.
For the molecule `COc1cc(C2c3cc4c(cc3C(OC3OC5COC(C)OC5C(O)C3O)C3COC(=O)C23)OCO4)cc(OC)c1O` (stereo not drawn) + NC1CCC(NC2CC2c2ccccc2)CC1, the IC50 under setting [1] is greater than 3000 nM; the IC50 under setting [2] was greater than 3000 nM; the concentration for half-maximal inhibition (IC50) under setting [3] is greater than 3000 nM; the 50% inhibitory concentration (IC50) under setting [4] worked out at 2330 nM; the IC50 under setting [5] was found to be 1420 nM. The viability, T/C was 81.8% under setting [6]; 67.1% under setting [7]; 59.9% under setting [8]; 58.5% under setting [9]; 55.7% under setting [10]; 54.5% under setting [11]. The viability, T/C by setting is: under setting [12], 79.4%; under setting [13], 71.2%; under setting [14], 70.3%; under setting [15], 67.5%; under setting [16], 59.6%; under setting [17], 57.5%. In addition, the viability, T/C is 82% under setting [18]; 69.3% under setting [19]; 68.6% under setting [20]; 62.9% under setting [21]; 57.6% under setting [22]; 57.2% under setting [23]. Further, the viability, T/C is, setting by setting: under setting [24], 72.5%; under setting [25], 69.6%; under setting [26], 63.5%; under setting [27], 60.7%; under setting [28], 52.5%; under setting [29], 49.2%. The viability, T/C runs as follows: under setting [30], 64.3%; under setting [31], 66.8%; under setting [32], 61.5%; under setting [33], 63.4%; under setting [34], 48.8%; under setting [35], 45.3%.
For the molecule `NS(=O)(=O)OCC1CC(n2ccc3c(NC4CCc5ccccc54)ncnc32)CC1O` (stereo not drawn) + NC1CC1c1ccc(-c2cccc(O)c2)cc1, the IC50 reads like this: under setting [1], 57.2 nM; under setting [2], 71 nM; under setting [3], 78.6 nM; under setting [4], 76.4 nM; under setting [5], 46.3 nM. Also, the viability, T/C reads like this: under setting [6], 99%; under setting [7], 70.4%; under setting [8], 32.4%; under setting [9], 23.4%; under setting [10], 15.9%; under setting [11], 12.4%. Besides, the viability, T/C is, setting by setting: under setting [12], 100%; under setting [13], 78.5%; under setting [14], 39.6%; under setting [15], 21.4%; under setting [16], 15.6%; under setting [17], 12%. Also, the viability, T/C reads like this: under setting [18], 96.2%; under setting [19], 83.2%; under setting [20], 41.1%; under setting [21], 25.9%; under setting [22], 16.1%; under setting [23], 12.8%. The viability, T/C is, setting by setting: under setting [24], 101%; under setting [25], 73.7%; under setting [26], 43.5%; under setting [27], 27.7%; under setting [28], 19%; under setting [29], 14.9%. Moreover, the viability, T/C by setting is: under setting [30], 90.8%; under setting [31], 53.2%; under setting [32], 40.3%; under setting [33], 29.9%; under setting [34], 18.4%; under setting [35], 15%.
With `CCc1c2c(nc3ccc(O)cc13)-c1cc3c(c(=O)n1C2)COC(=O)[C@]3(O)CC` + NC1CC1c1ccc(-c2cccc(O)c2)cc1, the IC50 is, setting by setting: under setting [1], less than 0.949 nM; under setting [2], less than 0.949 nM; under setting [3], less than 0.949 nM; under setting [4], less than 0.949 nM; under setting [5], less than 0.949 nM. In addition, the viability, T/C is 39.9% (second compound 0.1 µM, first compound 0.000949 µM); 34.3% (second compound 0.1 µM, first compound 0.003 µM); 23.6% under setting [6]; 0.69% under setting [7]; 0.04% under setting [8]; 0.13% under setting [9]. The viability, T/C reads like this: (second compound 0.316 µM, first compound 0.000949 µM) 37.5%; (second compound 0.316 µM, first compound 0.003 µM) 36.1%; under setting [12], 25.2%; under setting [13], 1.05%; under setting [14], 0.04%; under setting [15], 0.13%. In addition, the viability, T/C by setting is: (second compound 1 µM, first compound 0.000949 µM) 42.8%; (second compound 1 µM, first compound 0.003 µM) 31.7%; under setting [18], 23.8%; under setting [19], 0.94%; under setting [20], 0.05%; under setting [21], 0.13%. Besides, the viability, T/C is 43% (second compound 3.16 µM, first compound 0.000949 µM); 32% (second compound 3.16 µM, first compound 0.003 µM); 24.8% under setting [24]; 1.16% under setting [25]; 0.06% under setting [26]; 0.51% under setting [27]. For the same molecule, the viability, T/C was 41% (second compound 10 µM, first compound 0.000949 µM); 30.1% (second compound 10 µM, first compound 0.003 µM); 23.3% under setting [30]; 0.83% under setting [31]; 0.14% under setting [32]; 0.99% under setting [33].
In the case of `CC1(C)CCC(CN2CCN(c3ccc(C(=O)NS(=O)(=O)c4ccc(NCC5CCOCC5)c([N+](=O)[O-])c4)c(Oc4cnc5[nH]ccc5c4)c3)CC2)=C(c2ccc(Cl)cc2)C1`, the viability, T/C runs as follows: (compound 0.0316 µM) 103% and 98.6%; (compound 0.1 µM) 107% and 105%; (compound 0.316 µM) 97.5% and 95.6%; (compound 1 µM) 93% and 88.7%; (compound 3.16 µM) 74.2% and 67.7%; (compound 10 µM) 6.84% and 8.34%. Also, the IC50 (curve of compound) is 4720 nM and 4390 nM.
